Holding throughout (assay): In vitro antibacterial activity, microtitration dilution method (MIC)
Holding throughout (assay type): cell-based

The subject of experiment [1] is Staphylococcus aureus H 228. An excerpt: (§1) Agents & Chemoth., 6, 124 (1974), which is incorporated herein by reference.
Experiment [2] concerns Staphylococcus aureus UC-76.
Text: as §1

The test system of experiment [3] is Streptococcus faecalis MGH-2. To be noted: Enterococcus faecalis.
Text: as §1

For experiment [4], the system named is Pseudomonas aeruginosa UI-18. The conditions noted are these: UI18, read-out: Minimal Inhibitory Concentration (MIC). An excerpt:
(§2) The compounds of the invention display antibacterial activity when tested by the microtitration dilution method as described in Heifetz, et al, Antimicr. Agents & Chemoth., 6, 124 (1974), which is incorporated herein by reference.
(§3) By use of the above referenced method, the followed minimum inhibitory concentration values (MICs in μg/ml) were obtained for representative compounds of the invention.

For experiment [5], the system named is Streptococcus pneumoniae SV-1. To be noted: SV1, read-out: Minimal Inhibitory Concentration (MIC).
Text: as §2, §3

In another experiment the test system is Escherichia coli Vogel. To be noted: read-out: Minimal Inhibitory Concentration (MIC).
Text: as §2, §3

The next experiment deals with Proteus rettgeri M 1771. The conditions noted are these: Providencia rettgeri, M1771, read-out: Minimal Inhibitory Concentration (MIC).
Text: as §2, §3

The test system of experiment [6] is Klebsiella pneumoniae MGH-2. The conditions noted are these: MGH2, read-out: Minimal Inhibitory Concentration (MIC).
Text: as §2, §3

The subject of experiment [7] is Streptococcus pyogenes C-203. To be noted: C203, read-out: Minimal Inhibitory Concentration (MIC).
Text: as §2, §3

Experiment [8] has as its system Enterobacter cloacae MA 2646. To be noted: MA2646, read-out: Minimal Inhibitory Concentration (MIC).
Text: as §2, §3

Where [9] appears, read: H228, Staphylococcus aureus H 228, read-out: Minimal Inhibitory Concentration (MIC).
The mark [10] stands for this setting: Staphylococcus aureus, UC76, read-out: Minimal Inhibitory Concentration (MIC).
Where [11] appears, read: MGH2, Streptococcus faecalis MGH-2, read-out: Minimal Inhibitory Concentration (MIC).

From patent US4604401A, “Antibacterial agents III” (Warner-Lambert Company, priority 1984, dated 1986) come the findings set out here.

Values after ≈ are worked out from the molar mass of the structure shown. Read-outs that look alike come from different tables or passages of the source.

As for `CCNCC1CCN(c2cc3c(cc2F)c(=O)c(C(=O)O)cn3NC)C1` (stereo not shown) [Ex. 1, 7-[3-[(Ethylamino)methyl]-1-pyrrolidinyl]-6-fluoro-1-methylamino-1,4-dihydro-4-oxo-3-quinolinecarboxylic Acid], the MIC in [1] (setting [9]) amounted to 12.5 µg/mL (≈ 34.5 µM); in [2] (setting [10]) it was 0.2 µg/mL (≈ 0.552 µM); in [3] (setting [11]) it was 6.3 µg/mL (≈ 17.4 µM); in experiment [4] it was 25 µg/mL (≈ 69 µM); in [5], 3.1 µg/mL (≈ 8.55 µM); in the experiment on Escherichia coli Vogel it was 12.5 µg/mL (≈ 34.5 µM). Moreover, the MIC in the experiment on Proteus rettgeri M 1771 turned out to be 25 µg/mL (≈ 69 µM); in experiment [6] it was 6.3 µg/mL (≈ 17.4 µM); in experiment [7] it was 0.4 µg/mL (≈ 1.1 µM); in experiment [8], 6.3 µg/mL (≈ 17.4 µM).

On to `CNn1cc(C(=O)O)c(=O)c2cc(F)c(N3CCC(N)C3)c(F)c21` (stereo not shown) [Ex. 2, 7-(3-Amino-1-pyrrolidinyl)-6,8-difluoro-1,4-dihydro-1-methylamino-4-oxo-3-quinolinecarboxylic Acid], for which the MIC turned out to be 3.1 µg/mL (≈ 9.16 µM) in [1] (Staphylococcus aureus, H228, read-out: Minimal Inhibitory Concentration (MIC)); 0.4 µg/mL (≈ 1.18 µM) in experiment [2] (UC76, Staphylococcus aureus UC-76, read-out: Minimal Inhibitory Concentration (MIC)); 12.5 µg/mL (≈ 36.9 µM) in [3] (setting [11]); 0.2 µg/mL (≈ 0.591 µM) in [4]; 6.3 µg/mL (≈ 18.6 µM) in experiment [5]; 0.2 µg/mL (≈ 0.591 µM) with Escherichia coli Vogel. Besides, the MIC is 0.4 µg/mL (≈ 1.18 µM) in the experiment with Proteus rettgeri M 1771, 0.2 µg/mL (≈ 0.591 µM) in experiment [6], 0.8 µg/mL (≈ 2.36 µM) in experiment [7] and 0.8 µg/mL (≈ 2.36 µM) in [8].

Consider `CCNCC1CCN(c2c(F)cc3c(=O)c(C(=O)O)cn(NC)c3c2F)C1` (stereo not shown) [Ex. 3, 7-[3-[(Ethylamino)methyl]-1-pyrrolidinyl]-6,8-difluoro-1,4-dihydro-1-methylamino-4-oxo-3-quinolinecarboxylic acid], for which the MIC in experiment [1] (setting [9]) was 0.4 µg/mL (≈ 1.05 µM); in experiment [2] (setting [10]), 0.2 µg/mL (≈ 0.526 µM); in experiment [3] (setting [11]), 0.4 µg/mL (≈ 1.05 µM); in experiment [4], 0.8 µg/mL (≈ 2.1 µM); in experiment [5], 0.1 µg/mL (≈ 0.263 µM); in the experiment on Escherichia coli Vogel it was 0.2 µg/mL (≈ 0.526 µM). Moreover, the MIC in the experiment with Proteus rettgeri M 1771 came out at 1.6 µg/mL (≈ 4.21 µM); in [6], 0.2 µg/mL (≈ 0.526 µM); in experiment [7] it was 0.2 µg/mL (≈ 0.526 µM); in [8], 0.2 µg/mL (≈ 0.526 µM).

As for `CNn1cc(C(=O)O)c(=O)c2cc(F)c(N3CCC(CN)C3)c(F)c21` (stereo not shown) [Ex. 4, 7-[3-(Aminomethyl)-1-pyrrolidinyl]-6,8-difluoro-1,4-dihydro-1-methylamino-4-oxo-3-quinolinecarboxylic acid], the MIC in [1] (setting [9]) stood at 1.6 µg/mL (≈ 4.54 µM); in [2] (setting [10]) it was 0.2 µg/mL (≈ 0.568 µM); in [3] (MGH2, read-out: Minimal Inhibitory Concentration (MIC)), 0.8 µg/mL (≈ 2.27 µM); in experiment [4], 1.6 µg/mL (≈ 4.54 µM); in [5] it was 0.8 µg/mL (≈ 2.27 µM); with Escherichia coli Vogel, 1.6 µg/mL (≈ 4.54 µM). The MIC was 1.6 µg/mL (≈ 4.54 µM) with Proteus rettgeri M 1771, 1.6 µg/mL (≈ 4.54 µM) in experiment [6], 0.2 µg/mL (≈ 0.568 µM) in [7] and 1.6 µg/mL (≈ 4.54 µM) in experiment [8].
